In paper PMC9616048, “Thermal proteome profiling reveals Haemonchus orphan protein HCO_011565 as a target of the nematocidal small molecule UMW-868” (Frontiers in Pharmacology, 2022):
“Also recorded” adds a separate entry of the source.

Columns and labels:
[1] = tested on: mitochondria of HepG2 human hepatoma cells; assay: Mitochondrial toxicity in HepG2 cells (galactose medium); type: cell-based; settings: HepG2, 48 h
Protocol: (§1) The toxicities of compounds on cell and mitochondria were assessed to estimate their half-maximal cytotoxic concentrations (CC50) and half-maximal mitotoxic concentrations (MC50), respectively. HepG2 human hepatoma cells were seeded into wells of a 96-well plate at a density of 5.5 × 10^4 cells per well in 80 µl of Dulbecco’s modified eagle medium (DMEM; with GlutaMax™ cat. no. 10566016 or 4 mM L-glutamine cat. no. 11966025; Thermo Fisher Scientific), supplemented with 25 mM D-glucose (cytotoxicity) or D-galactose (mitotoxicity), 10% (v/v) inactivated foetal bovine serum (iFBS), 100 IU/ml of penicillin, 100 μg/ml of streptomycin and 0.25 μg/ml of amphotericin B (designated DMEM*). Cells were allowed to adhere for 16 h at 37°C and 5% (v/v) CO2 at > 90% relative humidity, then, incubated for 48 h with individual, serially-diluted compounds (two-fold serial dilution in DMEM*; […]) in a final volume of 100 µl. For the assessment of toxicity on mitochondria, cells were starved of serum (DMEM* without iFBS) for 4 h prior to the 48 h-incubation with compounds ([Swiss and Will, 2011]; [Kamalian et al., 2015]). Two positive control compounds, doxorubicin (cytotoxic control) and M-666 (mitotoxic control) were each added to three individual wells in each 96-well plate at a single concentration of 10 µM. DMEM* + 0.25% (v/v) DMSO was added to 12 wells in each plate as negative controls. Monepantel and moxidectin were also serially diluted — prepared in the same manner as test compounds — and used as (“non-toxic”) reference compounds. After 48 h of incubation, cell viability was determined by the crystal violet staining method ([Śliwka et al., 2016]). The absorbance (595 nm) of treated cells was normalised with reference to the negative control (100% viability). To determine the CC50 and MC50 values, compound concentrations were log10-transformed, baseline-corrected using a respective positive control (doxorubicin or M-666) and fitted using a variable slope four-parameter equation with a least squares (ordinary) fit model using GraphPad Prism software (v.9.1.2). Compounds and controls were tested in triplicate.

[2] = Cellular toxicity in HepG2 cells (crystal violet); type: cell-based, human; settings: human, HepG2 human hepatoma cells; HepG2, 48 h; read-out: Cytotoxicity (48 h) CC50
Protocol: as §1

[3] = tested on: H. contortus xL3s; assay: Dose-response evaluation, xL3 motility; type: cell-based; settings: Haemonchus contortus, 168 h, analog series; read-out: xL3 motility reduction (IC50 in µM)
Protocol: (§2) These evaluations were carried out to estimate the half-maximal inhibitory concentrations (IC50 values) for hit compounds against H. contortus xL3s. With reference to the two positive-control compounds (monepantel and moxidectin), IC50 values for compounds were estimated ([Preston et al., 2015]; [Taki et al., 2021a]) using two-fold serial dilution (in LB*; 9 points from 50 μM to 0.2 µM) in 96-well plates (cat. no. 3596; Corning) with larvae at a density of 300 H. contortus xL3s in 100 µl per well. Plates containing H. contortus xL3s were incubated at 38°C, 10% (v/v) CO2 and >90% relative humidity.
(§3) Compound concentrations were log10-transformed and fitted using a variable slope four-parameter equation, constraining the highest value to 100% employing a least squares (ordinary) fit model using GraphPad Prism software (v.9.1.2). Compounds were tested by three independent experiments in triplicate. A one-way analysis of variance (ANOVA) with a Tukey’s multiple comparison test or an unpaired t-test was used to establish statistically significant differences in larval motility or development.

[4] = tested on: eggs of H. contortus; assay: Egg hatch assay; type: cell-based; settings: Haemonchus contortus, 48 h; read-out: Egg hatch inhibition (IC50 in µM)
Protocol: Compounds were also assessed for their effect on the hatching of eggs of H. contortus in vitro. To do this, eggs were isolated from the faeces from sheep with patent (30 day-) H. contortus infection by sucrose flotation ([Mes et al., 2007]). Eggs were suspended in H2O at a concentration of one egg per µl. The eggs were dispensed into wells (in triplicate; 100 eggs per well) and incubated with two-fold serial dilutions (9 points from 50 μM to 0.2 µM in H2O) of individual test or control compounds for 48 h at 27°C and >90% relative humidity; wells with no compound were also included. The numbers (percentages) of eggs from which first-stage larvae (L1s) hatched were counted using a light microscope (M80, Leica) at a 40-times magnification. With reference to positive-control compounds (i.e., monepantel and moxidectin), IC50 values of compounds were calculated.

[5] = tested on: H. contortus fourth-stage larvae (L4s) development; assay: Dose-response evaluation, L4 development; type: cell-based, Haemonchus contortus; settings: Haemonchus contortus; 168 h, analog series; read-out: L4 development inhibition (IC50 in µM)
Protocol: as §2
as §3, with “The motility of H. contortus xL3s and L4 development were measured following 168 h of incubation with compound ([Taki et al., 2021a]). Compound concentrations” for “Compound concentrations”

[6] = tested on: H. contortus xL3s; assay: Cell lethality in xL3s (Sytox Green staining); type: cell-based, Haemonchus contortus
Protocol: Fluorescence staining was employed to assess the ability of UMW-868 to reduce the viability of H. contortus. The xL3s were dispensed in 96-well plates at a density of 300 xL3 per well, and incubated with compounds UMW-868 or A-3155, non-active analogs of UMW-868, at 50 μM at 38°C, 10% (v/v) CO2 and >90% relative humidity. After 90 h of incubation, H. contortus xL3s were stained with Sytox Green nucleic acid stain (Thermo Fisher Scientific) at the final concentration of 1 µM in LB* in the same 96-well plates and incubated for 1 h at 38°C and 10% (v/v) CO2 with >90% relative humidity. Following the incubation, the viability of larvae was evaluated by measuring the relative fluorescent units (RFU) of xL3s using an Omega FLUOstar microplate reader (BMG Labtech), with excitation and emission wavelengths set at 485 nm and 520 nm, respectively. The 96-well plates containing the stained larvae were returned to the incubator for further 78 h; after a total of 168 h of compound exposure, the stained larvae were examined under an inverted fluorescence microscope (DM IL, Leica) equipped with a green fluorescent protein filter (470/500/525 […]; Leica), and imaged using Leica Application Suite software (Leica).

[7] = tested on: H. contortus xL3 to L4 development; assay: High throughput screen, larval development and phenotype at 168 h; type: cell-based, Haemonchus contortus; settings: Haemonchus contortus, development to L4
Protocol: Following the measurement of xL3 motility, plates were incubated again for 78 h (i.e., a total of 168 h) under the same conditions. Thereafter, 40 µl of 1% (v/v) iodine were added to individual wells, and worms examined using a light microscope (M80, Leica) at 60-times magnification to assess larval development, based on the presence/absence of a well-developed pharynx ([Sommerville, 1966]), and/or phenotypic alterations with respect to untreated xL3s.

[8] = tested on: exsheathed third-stage larvae (xL3s) of H. contortus; assay: High throughput screen, xL3 motility (infrared light beam-interference); type: cell-based; settings: Haemonchus contortus, 90 h, read-out: Motility reduction at 90 h (%)
Protocol: An established platform was used for compound screening ([Taki et al., 2021a]). Using a semi-automated liquid handling robot (VIAFLO ASSIST PLUS, Integra Biosciences), compounds were individually diluted to […] in LB* containing 0.2% (v/v) DMSO and then dispensed in 20 µl into the wells of sterile 384-well flat bottom microtitre plates (cat. no. 3680; Corning); 320 compounds were arrayed on each plate, with 16 wells being negative controls (with LB* + 0.2% DMSO) and four wells containing each monepantel (Zolvix; Elanco), moxidectin (Cydectin; Virbac), monepantel + abamectin (Zolvix Plus; Elanco) and compound MIPS-0018666 (abbreviated here as M-666) ([Le et al., 2018]) as positive controls (20 µM). Following the dilution and dispensing of compounds into plates, 80 H. contortus xL3s in 20 μl of LB* were transferred to individual wells; after this step, the final concentrations were 20 µM of test- or positive-control compound, and 0.2% of DMSO. During dispensing, xL3s were maintained in a homogenous suspension using a constant stream of bubbles produced employing an aquarium pump (H2Pro). Plates containing H. contortus xL3s were incubated at 38 °C, 10% (v/v) CO2 and >90% relative humidity.
After 90 h of incubation with compounds (20 μM), H. contortus xL3s motility was measured for 15 min in individual wells of each plate by infrared light beam-interference ([Simonetta and Golombek, 2007]) using a WMicroTracker ONE instrument (Phylumtech). Raw data captured were normalised against measurements obtained for the positive (monepantel) and negative (LB* + 0.2% DMSO) controls to remove plate-to-plate variation by calculating the percentage of motility using the program GraphPad Prism (v.9.1.2; GraphPad Software). A compound was considered active (“hit”) if it reduced larval motility by ≥ 70%. To continually assess the performance of the screening assay, the Z′-factor ([Zhang et al., 1999]) was calculated (using data for the DMSO and the M-666 controls) for individual plates (n = 43) and was consistently ≥0.7; reliable assays achieve a Z′-factor of between 0.5 and 1. The signal to background (S/B) ratio (for the same controls) ([Sui and Wu, 2007]) was consistently >200.

Row | IC50 [3] | IC50 [4] | SMILES | Mitotoxicity (48 h) MC50 [1] | CC50 at 48 h [2] | IC50 [5] | lethality / viability of xL3s (in words) ([6]; 90 h) | dead cells detected microscopically in xL3s (Sytox Green) ([6]; 168 h of exposure) | inhibition at 20 µM [7] | inhibition at 20 µM [8]
1 | 4.8 µM | 7.5 µM | CCCc1ccc(-c2nc(-c3ccc(C)cc3)no2)cc1 [Compound A-3136] | > 50.0 µM | > 50 µM | 12.5 µM | – | – | – | –
2 | 1.4 µM | > 50 µM | FC(F)Oc1ccc(-c2nc(-c3ccc(C(F)(F)F)cc3)no2)cc1 [Compound A-6325, 5-(4-(Difluoromethoxy)phenyl)-3-(4-(trifluoromethyl)phenyl)-1,2,4-oxadiazole] | 36.3 µM | > 50 µM | 3.1 µM | – | – | – | –
3 | – | – | NC(=O)c1ccc(-c2nc(-c3cccs3)no2)cc1 [Compound A-3155] | – | – | – | remained viable; also recorded: non-lethal | no dead cells were detected | – | –
4 | 12.1 µM | 13.1 µM | CCCc1ccc(-c2nc(-c3ccccc3)no2)cc1 [Compound A-3126] | > 50.0 µM | > 50 µM | 50 µM | – | – | – | –
5 | 4 µM | > 50 µM | FC(F)Oc1ccc(-c2nc(-c3cccs3)no2)cc1 [Compound A-4340, 5-(4-(Difluoromethoxy)phenyl)-3-(thiophen-2-yl)-1,2,4-oxadiazole] | > 50.0 µM | > 50 µM | 25 µM | – | – | – | –
6 | > 50 µM | > 50 µM | c1ccc(-c2noc(-c3cccs3)n2)cc1 [Tioxazafen, 3-Phenyl-5-(thiophen-2-yl)-1,2,4-oxadiazole, reference compound] | > 50.0 µM | > 50 µM | > 50 µM | – | – | – | –
7 | 7.8 µM | > 50 µM | CCOc1ccc(-c2nc(-c3cccs3)no2)cc1 [Compound A-3134] | > 50.0 µM | > 50 µM | > 50 µM | – | – | – | –
8 | 1.6 µM | > 50 µM | CCCc1ccc(-c2nc(-c3ccc(C(F)(F)F)cc3)no2)cc1 [Compound A-6501] | > 50.0 µM | > 50 µM | 6.3 µM | – | – | – | –
9 | 9.8 µM | > 50 µM | FC(F)(F)Oc1ccc(-c2nc(-c3cccs3)no2)cc1 [Compound A-6316, 3-(Thiophen-2-yl)-5-(4-(trifluoromethoxy)phenyl)-1,2,4-oxadiazole] | > 50.0 µM | > 50 µM | > 50 µM | – | – | – | –
10 | 1.4 µM | 38 µM | CCCc1ccc(-c2nc(-c3ccc(OC)cc3)no2)cc1 [Compound A-6318, 3-(4-Methoxyphenyl)-5-(4-propylphenyl)-1,2,4-oxadiazole] | 48.2 µM | > 50 µM | 1.6 µM | – | – | – | –
11 | > 50 µM | > 50 µM | c1ccc(-c2nc(-c3cccs3)no2)cc1 [Compound A-4347, 5-Phenyl-3-(thiophen-2-yl)-1,2,4-oxadiazole] | > 50.0 µM | > 50 µM | > 50 µM | – | – | – | –
12 | – | – | CC(=O)c1ccc(NC(=O)CSc2nnc(-c3ccco3)n2C)cc1 [MBHF-hit28, N-(4-acetylphenyl)-2-{[5-(2-furyl)-4-methyl-4H-1,2,4-triazol-3-yl]sulfanyl}acetamide] | – | – | – | – | – | < 80% | 72.7%
